Assay results taken from patent US4410516A, “1-N(αHydroxy-ω-aminoalkanoyl) derivatives of 5,3',4'-trideoxy- or 5,3', 4'-trideoxy-6'-N- methyl- or 5, 3', 4',6"-tetradeoxykannamyci B and production thereof” (Zaidan Hojin Biseibutsu Kagaku Kenkyu Kai, priority 1981, dated 1983).
Converted amounts (≈) assume the structure as drawn. Read-outs that look alike come from different tables or passages of the source.

Experiments:
[1] = test system: Pseudomonas aeruginosa A3; experiment: Minimum inhibitory concentration, serial dilution on nutrient agar; assay type: cell-based; conditions: 37° C., 18 hours incubation
[2] = test system: Pseudomonas aeruginosa GN315; experiment: as above; assay type: cell-based
[3] = test system: Bacillus subtilis NRRL B-558; experiment: as above; assay type: cell-based; conditions: NRRLB558, 37° C., 18 hours incubation
[4] = test system: Escherichia coli K-12 ML 1410; experiment: as above; assay type: cell-based
Salmonella typhi T-63 = experiment: as above; assay type: cell-based; conditions: Salmonella enterica, 18 h
Serratia 4 = experiment: as above; assay type: cell-based; conditions: 37° C., 18 hours incubation
[5] = test system: Pseudomonas aeruginosa ROS134/PU21; experiment: as above; assay type: cell-based; conditions: ROS134/PU21, 18 h
[6] = test system: Shigella dysenteriae JS 11910; experiment: as above; assay type: cell-based; conditions: JS11910, 18 h
[7] = test system: Pseudomonas aeruginosa 21-75; experiment: as above; assay type: cell-based; conditions: 2175, 37° C., 18 hours incubation
[8] = test system: Staphylococcus epidermidis 109; experiment: as above; assay type: cell-based
[9] = test system: Escherichia coli K-12 ML 1410 R81; experiment: as above; assay type: cell-based; conditions: 18 h
Proteus rettgeri GN311 = experiment: as above; assay type: cell-based; conditions: Providencia rettgeri, 37° C., 18 hours incubation
Providencia 2991 = experiment: as above; assay type: cell-based; conditions: 37° C., 18 hours incubation
[10] = test system: Pseudomonas aeruginosa H9; experiment: as above; assay type: cell-based
[11] = test system: Escherichia coli K-12 LA 290 R56; experiment: as above; assay type: cell-based; conditions: K12LA290R56, 18 h
[12] = test system: Staphylococcus aureus 209P; experiment: as above; assay type: cell-based; conditions: 37° C., 18 hours incubation
[13] = test system: Klebsiella pneumoniae PCI 602; experiment: as above; assay type: cell-based
Providencia Pv 16 = experiment: as above; assay type: cell-based; conditions: PV16, 37° C., 18 hours incubation
Proteus rettgeri GN466 = experiment: as above; assay type: cell-based; conditions: Providencia rettgeri
[14] = test system: Pseudomonas aeruginosa K-Ps102; experiment: as above; assay type: cell-based
Proteus vulgaris OX19 = experiment: as above; assay type: cell-based; conditions: 37° C., 18 hours incubation
[15] = test system: Staphylococcus aureus Smith; experiment: as above; assay type: cell-based; conditions: 37° C., 18 hours incubation
[16] = test system: Escherichia coli K-12 LA 290 R64; experiment: as above; assay type: cell-based; conditions: K12LA290R64, 18 h
[17] = test system: Pseudomonas aeruginosa B-13; experiment: as above; assay type: cell-based; conditions: B13, 37° C., 18 hours incubation
Serratia SOU = experiment: as above; assay type: cell-based; conditions: 37° C., 18 hours incubation
Escherichia coli K-12 R5 = experiment: as above; assay type: cell-based; conditions: K12R5, 18 h
[18] = Acute toxicity by intravenous injection in mice; conditions: mouse, in vivo
bacteria = experiment: Antibacterial activity (stated in words); assay type: cell-based
[19] = Staphylococcus epidermidis, 109, nutrient agar, 37° C., 18 hours incubation, read-out: MIC
[20] = GN466, nutrient agar, 37° C., 18 hours incubation, read-out: MIC
[21] = GN315, nutrient agar, 37° C., 18 hours incubation, read-out: MIC
[22] = K12ML1410, nutrient agar, 37° C., 18 hours incubation, read-out: MIC
[23] = PCI602, nutrient agar, 37° C., 18 hours incubation, read-out: MIC
[24] = KPS102, nutrient agar, 37° C., 18 hours incubation, read-out: MIC
[25] = H9, nutrient agar, 37° C., 18 hours incubation, read-out: MIC

SMILES | MIC [1] [µg/mL] | MIC [3] [µg/mL] | MIC (Salmonella typhi T-63) [µg/mL] | MIC (Serratia 4) [µg/mL] | MIC [5] [µg/mL] | MIC [6] [µg/mL] | MIC [7] [µg/mL] | MIC [8, 19] [µg/mL] | MIC (Proteus rettgeri GN311) [µg/mL] | MIC (Providencia 2991) [µg/mL] | MIC [11] [µg/mL] | MIC [12] [µg/mL] | MIC (Providencia Pv 16) [µg/mL] | MIC (Proteus vulgaris OX19) [µg/mL] | MIC [15] [µg/mL] | MIC [16] [µg/mL] | MIC [17] [µg/mL] | MIC (Serratia SOU) [µg/mL] | MIC (Escherichia coli K-12 R5) [µg/mL] | LD50 [18] [mg/kg] | also measured
CNC[C@@H]1CC[C@@H](N)[C@@H](O[C@H]2C[C@@H](O[C@H]3O[C@H](CO)[C@@H](O)[C@H](N)[C@H]3O)[C@H](NC(=O)C(O)CN)C[C@@H]2N)O1 (stereo partly drawn) [AHP-trideoxyMKMB, 1-N-[(RS)-3-amino-2-hydroxypropionyl]-5,3',4'-trideoxy-6'-N-methylkanamycin B] | 0.78 (≈ 1.45 µM) | 0.39 (≈ 0.727 µM) | 3.13 (≈ 5.83 µM) | 12.5 (≈ 23.3 µM) | 50 (≈ 93.2 µM) | 6.25 (≈ 11.6 µM) | 25 (≈ 46.6 µM) | < 0.2 | 25 (≈ 46.6 µM) | 50 (≈ 93.2 µM) | 3.13 (≈ 5.83 µM) | 0.39 (≈ 0.727 µM) | 50 (≈ 93.2 µM) | 0.78 (≈ 1.45 µM) | < 0.2 | 3.13 (≈ 5.83 µM) | 25 (≈ 46.6 µM) | 50 (≈ 93.2 µM) | 12.5 (≈ 23.3 µM) | 50 to 100 | MIC ([2]; GN315, 18 h): 3.13 µg/mL (≈ 5.83 µM); MIC ([4]; K12ML1410, 18 h): 3.13 µg/mL (≈ 5.83 µM); MIC [9]: 3.13 µg/mL (≈ 5.83 µM); MIC ([10]; H9, 18 h): 3.13 µg/mL (≈ 5.83 µM); MIC ([13]; PCI602, 18 h): 3.13 µg/mL (≈ 5.83 µM); MIC (Proteus rettgeri GN466; [20]): 12.5 µg/mL (≈ 23.3 µM); MIC ([14]; KPS102, 18 h): 3.13 µg/mL (≈ 5.83 µM)
NCC[C@H](O)C(=O)N[C@@H]1C[C@H](N)[C@@H](O[C@H]2O[C@H](CN)CC[C@H]2N)C[C@H]1O[C@H]1O[C@H](CO)[C@@H](O)[C@H](N)[C@H]1O [AHB-trideoxyKMB, 1-N-[(S)-4-amino-2-hydroxybutyryl]-5,3',4'-trideoxykanamycin B] | 0.39 (≈ 0.727 µM) | < 0.2 | 25 (≈ 46.6 µM) | 12.5 (≈ 23.3 µM) | > 100 | 3.13 (≈ 5.83 µM) | 6.25 (≈ 11.6 µM) | 0.39 (≈ 0.727 µM) | 25 (≈ 46.6 µM) | 6.25 (≈ 11.6 µM) | 0.78 (≈ 1.45 µM) | < 0.2 | 12.5 (≈ 23.3 µM) | 0.39 (≈ 0.727 µM) | < 0.2 | 0.78 (≈ 1.45 µM) | 6.25 (≈ 11.6 µM) | 100 (≈ 186 µM) | 100 (≈ 186 µM) | 25 to 50 | MIC [2, 21]: 25 µg/mL (≈ 46.6 µM); MIC [4, 22]: 1.56 µg/mL (≈ 2.91 µM); MIC [9]: 1.56 µg/mL (≈ 2.91 µM); MIC ([10]; H9, 18 h): 3.13 µg/mL (≈ 5.83 µM); MIC [13, 23]: 0.78 µg/mL (≈ 1.45 µM); MIC (Proteus rettgeri GN466; GN466, 18 h): 3.13 µg/mL (≈ 5.83 µM); MIC [14, 24]: 1.56 µg/mL (≈ 2.91 µM)
CNC[C@@H]1CC[C@@H](N)[C@@H](O[C@H]2C[C@@H](O[C@H]3O[C@H](CO)[C@@H](O)[C@H](N)[C@H]3O)[C@H](N)C[C@@H]2N)O1 [TrideoxyMKMB, 5,3',4'-trideoxy-6'-N-methylkanamycin B] | 3.13 (≈ 6.96 µM) | 0.78 (≈ 1.74 µM) | 6.25 (≈ 13.9 µM) | 50 (≈ 111 µM) | > 100 | 50 (≈ 111 µM) | > 100 |  | 100 (≈ 222 µM) | > 100 | 25 (≈ 55.6 µM) | 1.56 (≈ 3.47 µM) | > 100 | 3.13 (≈ 6.96 µM) | 0.39 (≈ 0.868 µM) | 25 (≈ 55.6 µM) | 100 (≈ 222 µM) | > 100 | 50 (≈ 111 µM) | 50 to 100 | MIC [2, 21]: 25 µg/mL (≈ 55.6 µM); MIC [4, 22]: 25 µg/mL (≈ 55.6 µM); MIC ([8]; Staphylococcus epidermidis, 109, 18 h): 6.25 µg/mL (≈ 13.9 µM); MIC [9]: 25 µg/mL (≈ 55.6 µM); MIC [10, 25]: 25 µg/mL (≈ 55.6 µM); MIC [13, 23]: 12.5 µg/mL (≈ 27.8 µM); MIC (Proteus rettgeri GN466; [20]): 25 µg/mL (≈ 55.6 µM); MIC [14, 24]: 25 µg/mL (≈ 55.6 µM); antibacterial activity (bacteria): antibacterial activity higher than that of the 5,3',4'-trideoxykanamycin B especially against some resistant strains
CNC[C@@H]1CC[C@@H](N)[C@@H](O[C@H]2C[C@@H](O[C@H]3O[C@H](CO)[C@@H](O)[C@H](N)[C@H]3O)[C@H](NC(=O)[C@@H](O)CCCN)C[C@@H]2N)O1 [AHV-trideoxyMKMB, 1-N-[(S)-5-amino-2-hydroxyvaleryl]-5,3',4'-trideoxy-6'-N-methylkanamycin B] | 0.39 (≈ 0.691 µM) | < 0.2 | 3.13 (≈ 5.54 µM) | 12.5 (≈ 22.1 µM) | 50 (≈ 88.5 µM) | 6.25 (≈ 11.1 µM) | 12.5 (≈ 22.1 µM) | < 0.2 | 100 (≈ 177 µM) | 25 (≈ 44.3 µM) | 1.56 (≈ 2.76 µM) | 0.2 (≈ 0.354 µM) | 25 (≈ 44.3 µM) | 0.78 (≈ 1.38 µM) | < 0.2 | 1.56 (≈ 2.76 µM) | 12.5 (≈ 22.1 µM) | 50 (≈ 88.5 µM) | 6.25 (≈ 11.1 µM) | 50 to 100 | MIC ([2]; GN315, 18 h): 3.13 µg/mL (≈ 5.54 µM); MIC ([4]; K12ML1410, 18 h): 3.13 µg/mL (≈ 5.54 µM); MIC [9]: 3.13 µg/mL (≈ 5.54 µM); MIC ([10]; H9, 18 h): 3.13 µg/mL (≈ 5.54 µM); MIC ([13]; PCI602, 18 h): 1.56 µg/mL (≈ 2.76 µM); MIC (Proteus rettgeri GN466; GN466, 18 h): 6.25 µg/mL (≈ 11.1 µM); MIC ([14]; KPS102, 18 h): 1.56 µg/mL (≈ 2.76 µM)
C[C@H]1O[C@H](O[C@@H]2C[C@H](O[C@H]3O[C@H](CN)CC[C@H]3N)[C@@H](N)C[C@H]2N)[C@H](O)[C@@H](N)[C@@H]1O [TetradeoxyKMB, 5,3',4',6"-tetradeoxykanamycin B] | 3.13 (≈ 7.46 µM) | < 0.2 | 12.5 (≈ 29.8 µM) | 50 (≈ 119 µM) | > 100 | 12.5 (≈ 29.8 µM) | > 100 | 6.25 (≈ 14.9 µM) | > 100 | > 100 | 100 (≈ 238 µM) | 3.13 (≈ 7.46 µM) | > 100 | 1.56 (≈ 3.72 µM) | < 0.2 | 100 (≈ 238 µM) | 50 (≈ 119 µM) | > 100 | > 100 | 25 to 50 | MIC [2, 21]: > 100 µg/mL; MIC ([4]; K12ML1410, 18 h): 12.5 µg/mL (≈ 29.8 µM); MIC [10, 25]: 100 µg/mL (≈ 238 µM); MIC [13, 23]: 3.13 µg/mL (≈ 7.46 µM); MIC (Proteus rettgeri GN466; [20]): 25 µg/mL (≈ 59.6 µM); MIC ([14]; KPS102, 18 h): 12.5 µg/mL (≈ 29.8 µM); antibacterial activity (bacteria): significantly active against some kinds of bacteria
